Reference: patent publication US20170121315A1, “HETEROBICYCLICALLY SUBSTITUTED 4-OXOBUTANE ACID DERIVATIVES AND USE THEREOF” (priority 2014, published 2017)

Molecular target: T1, human macrophage elastase (HME/hMMP-12) (Homo sapiens, UniProt P39900)
T1 construct: purchased R&D Systems 917-MP
Experiment: In vitro HME inhibition test (standard or high-sensitivity)
Format: biochemical
Conditions: in some cases mean values, rounded to two significant figures
Procedure: The potency of the compounds according to the invention with respect to HME (MMP-12) is determined in an in vitro inhibition test. The HME-mediated amidolytic cleavage of a suitable peptide substrate leads to an increase in fluorescent light therein. The signal intensity of the fluorescent light is directly proportional to the enzyme activity. The active concentration of a test compound at which half the enzyme is inhibited (50% signal intensity of the fluorescent light) is reported as the IC50 value.
In a 384 hole microtiter plate, in a total test volume of 41 μl, the test buffer (0.1 M HEPES pH 7.4, 0.15 M NaCl, 0.03 M CaCl2, 0.004 mM ZnCl2, 0.02 M EDTA, 0.005% Brij®), the enzyme (0.5 nM HME; R&D Systems, 917-MP, autocatalytic activation according to the manufacturer's instructions) and the intramolecularly quenched substrate [5 μM Mca-Pro-Leu-Gly-Leu-Glu-Glu-Ala-Dap(Dnp)-NH2; Bachem, M-2670] are incubated in the absence and presence of the test substance (as a solution in DMSO) at 37° C. for two hours. The fluorescence intensity of the test mixtures is measured (excitation […], emission 393 nm). The IC50 values are ascertained by plotting the fluorescent light intensity against the active ingredient concentration.
In this case, an enzyme concentration ten times lower is used (final concentration, e.g. 0.05 nM) in order to achieve an increased test sensitivity. The incubation period chosen for the test is correspondingly longer (e.g. 16 hours).

T1 sequence (P39900 106-470): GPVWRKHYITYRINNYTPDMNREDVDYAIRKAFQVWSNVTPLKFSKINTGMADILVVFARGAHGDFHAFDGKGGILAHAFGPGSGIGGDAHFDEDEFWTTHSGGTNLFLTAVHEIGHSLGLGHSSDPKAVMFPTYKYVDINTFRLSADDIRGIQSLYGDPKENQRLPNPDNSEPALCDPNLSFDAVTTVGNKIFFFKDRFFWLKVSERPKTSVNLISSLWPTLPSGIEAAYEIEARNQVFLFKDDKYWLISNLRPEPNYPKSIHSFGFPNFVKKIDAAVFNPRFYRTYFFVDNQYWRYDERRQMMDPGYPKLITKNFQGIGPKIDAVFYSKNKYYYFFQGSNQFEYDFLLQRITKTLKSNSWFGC

SMILES	IC50
Cc1ccccc1CCOc1ccc2oc(C(=O)CC(CCn3nnc4ccccc4c3=O)C(=O)O)cc2c1 (racemic) [Example 4, (+/−)-4-{5-[2-(2-Methylphenyl)ethoxy]-1-benzofur-2-yl}-4-oxo-2-[2-(4-oxo-1,2,3-benzotriazin-3(4H)-yl)ethyl]butanoic acid]	4.3 nM
CC(C)CCCCOc1ccc2oc(C(=O)CC(CCn3nnc4ccccc4c3=O)C(=O)O)cc2c1 (racemic) [Example 41, (+/−)-4-{5-[(5-Methylhexyl)oxy]-1-benzofur-2-yl}-4-oxo-2-[2-(4-oxo-1,2,3-benzotriazin-3(4H)-yl)ethyl]butanoic acid]	3.9 nM
O=C(CC(CCn1nnc2ccccc2c1=O)C(=O)O)c1coc2cc(OCc3ccc(Cl)c(Cl)c3)ccc12 (racemic) [Example 92, (+/−)-4-{6-[(3,4-Dichlorobenzyl)oxy]-1-benzofur-3-yl}-4-oxo-2-[2-(4-oxo-1,2,3-benzotriazin-3(4H)-yl)ethyl]butanoic acid]	1.3 nM
O=C(CC(CCn1nnc2ccccc2c1=O)C(=O)O)c1noc2cc(OCCC3CCOCC3)ccc12 (racemic) [Example 149, (+/−)-4-Oxo-2-[2-(4-oxo-1,2,3-benzotriazin-3(4H)-yl)ethyl]-4-{6-[2-(tetrahydro-2H-pyran-4-yl)ethoxy]-1,2-benzoxazol-3-yl}butanoic acid]	0.58 nM
CCCCOc1ccc2cc(C(=O)CC(CCn3nnc4ccccc4c3=O)C(=O)O)oc2c1 (racemic) [Example 61, (+/−)-4-(6-Butoxy-1-benzofur-2-yl)-4-oxo-2-[2-(4-oxo-1,2,3-benzotriazin-3(4H)-yl)ethyl]butanoic acid]	4.6 nM
O=C(CC(CCn1nnc2ccccc2c1=O)C(=O)O)c1cc2cc(OCc3cc(F)ccc3F)ccc2o1 (racemic) [Example 49, (+/−)-4-{5-[(2,5-Difluorobenzyl)oxy]-1-benzofur-2-yl}-4-oxo-2-[2-(4-oxo-1,2,3-benzotriazin-3(4H)-yl)ethyl]butanoic acid]	0.55 nM
O=C(CC(CCn1nnc2ccccc2c1=O)C(=O)O)c1cc2cc(OCC3(F)CCOCC3)ccc2o1 (racemic) [Example 14, (+/−)-4-{5-[(4-Fluorotetrahydro-2H-pyran-4-yl)methoxy]-1-benzofur-2-yl}-4-oxo-2-[2-(4-oxo-1,2,3-benzotriazin-3(4H)-yl)ethyl]butanoic acid]	0.65 nM
CCCCOc1ccc2c(C(=O)CC(CCn3nnc4ccccc4c3=O)C(=O)O)coc2c1 (racemic) [Example 107, (+/−)-4-(6-Butoxy-1-benzofur-3-yl)-4-oxo-2-[2-(4-oxo-1,2,3-benzotriazin-3(4H)-yl)ethyl]butanoic acid]	0.61 nM
COc1cccc(C(=O)COc2ccc3cc(C(=O)CC(CCn4nnc5ccccc5c4=O)C(=O)O)sc3c2)c1 (racemic) [Example 124, (+/−)-4-{6-[2-(3-Methoxyphenyl)-2-oxoethoxy]-1-benzothiophen-2-yl}-4-oxo-2-[2-(4-oxo-1,2,3-benzotriazin-3(4H)-yl)ethyl]butanoic acid]	0.95 nM
O=C(CC(CCn1nnc2ccccc2c1=O)C(=O)O)c1cc2cc(OCc3ccccc3)ccc2o1 (single isomer, unassigned; (-)) [Example 29, (−)-4-[5-(Benzyloxy)-1-benzofur-2-yl]-4-oxo-2-[2-(4-oxo-1,2,3-benzotriazin-3(4H)-yl)ethyl]butanoic acid]	770 nM
CCCOc1ccc2cc(C(=O)CC(CCn3nnc4ccccc4c3=O)C(=O)O)oc2c1 (single isomer, unassigned) [Example 60, 4-Oxo-2-[2-(4-oxo-1,2,3-benzotriazin-3(4H)-yl)ethyl]-4-(6-propoxy-1-benzofur-2-yl)butanoic acid]	1.8 nM
O=C(CC(CCn1nnc2ccccc2c1=O)C(=O)O)c1coc2cc(OCC3CCOCC3)ccc12 (single isomer, unassigned; (+)) [Example 96, (+)-4-Oxo-2-[2-(4-oxo-1,2,3-benzotriazin-3(4H)-yl)ethyl]-4-[6-(tetrahydro-2H-pyran-4-ylmethoxy)-1-benzofur-3-yl]butanoic acid]	0.81 nM
O=C(CC(CCn1nnc2ccccc2c1=O)C(=O)O)c1noc2cc(OCCC3CCCCC3)ccc12 (single isomer, unassigned; enantiomer 2) [Example 143, (+)-4-[6-(2-Cyclohexylethoxy)-1,2-benzoxazol-3-yl]-4-oxo-2-[2-(4-oxo-1,2,3-benzotriazin-3(4H)-yl)ethyl]butanoic acid (enantiomer 2)]	0.019 nM
COc1ccc2cc(C(=O)CC(CCn3nnc4ccc(C(F)(F)F)cc4c3=O)C(=O)O)sc2c1 (racemic) [Example 131, (+/−)-4-(6-Methoxy-1-benzothiophen-2-yl)-4-oxo-2-{2-[4-oxo-6-(trifluoromethyl)-1,2,3-benzotriazin-3(4H)-yl]ethyl}butanoic acid]	1.2 nM
CC(C)CCCCOc1ccc2cc(C(=O)CC(CCn3nnc4ccccc4c3=O)C(=O)O)oc2c1 (racemic) [Example 72, (+/−)-4-{6-[(5-Methylhexyl)oxy]-1-benzofur-2-yl}-4-oxo-2-[2-(4-oxo-1,2,3-benzotriazin-3(4H)-yl)ethyl]butanoic acid]	3.1 nM
CCCOc1ccc2c(C(=O)CC(CCn3nnc4ccccc4c3=O)C(=O)O)coc2c1 (racemic) [Example 86, (+/−)-4-Oxo-2-[2-(4-oxo-1,2,3-benzotriazin-3(4H)-yl)ethyl]-4-(6-propoxy-1-benzofur-3-yl)butanoic acid]	1.4 nM
N#CCCCOc1ccc2oc(C(=O)CC(CCn3nnc4ccccc4c3=O)C(=O)O)cc2c1 (racemic) [Example 15, (+/−)-4-[5-(3-Cyanopropoxy)-1-benzofur-2-yl]-4-oxo-2-[2-(4-oxo-1,2,3-benzotriazin-3(4H)-yl)ethyl]butanoic acid]	4.8 nM
CCCCOc1ccc2c(C(=O)CC(CCn3nnc4ccccc4c3=O)C(=O)O)coc2c1 (single isomer, unassigned; (+)) [Example 108, (+)-4-(6-Butoxy-1-benzofur-3-yl)-4-oxo-2-[2-(4-oxo-1,2,3-benzotriazin-3(4H)-yl)ethyl]butanoic acid]	0.23 nM
O=C(CC(CCn1nnc2ccccc2c1=O)C(=O)O)c1cc2cc(OCc3cccc(F)c3)ccc2o1 (racemic) [Example 43, (+/−)-4-{5-[(3-Fluorobenzyl)oxy]-1-benzofur-2-yl}-4-oxo-2-[2-(4-oxo-1,2,3-benzotriazin-3(4H)-yl)ethyl]butanoic acid]	1.3 nM
CCCCOc1ccc2cc(C(=O)CC(CCn3nnc4ccccc4c3=O)C(=O)O)oc2c1 (single isomer, unassigned; (-)) [Example 62, (−)-4-(6-Butoxy-1-benzofur-2-yl)-4-oxo-2-[2-(4-oxo-1,2,3-benzotriazin-3(4H)-yl)ethyl]butanoic acid]	570 nM
O=C(CC(CCn1nnc2ccccc2c1=O)C(=O)O)c1cc2ccc(OCCCC(F)(F)F)cc2s1 (racemic) [Example 120, (+/−)-4-Oxo-2-[2-(4-oxo-1,2,3-benzotriazin-3(4H)-yl)ethyl]-4-[6-(4,4,4-trifluorobutoxy)-1-benzothiophen-2-yl]butanoic acid]	3.6 nM
O=C(CC(CCn1nnc2ccccc2c1=O)C(=O)O)c1cc2cc(OCc3ccc(F)cc3)ccc2o1 (racemic) [Example 22, (+/−)-4-{5-[(4-Fluorobenzyl)oxy]-1-benzofur-2-yl}-4-oxo-2-[2-(4-oxo-1,2,3-benzotriazin-3(4H)-yl)ethyl]butanoic acid]	2.5 nM
CCCCCCCOc1ccc2c(C(=O)CC(CCn3nnc4ccccc4c3=O)C(=O)O)coc2c1 (single isomer, unassigned; (-)) [Example 102, (−)-4-[6-(Heptyloxy)-1-benzofur-3-yl]-4-oxo-2-[2-(4-oxo-1,2,3-benzotriazin-3(4H)-yl)ethyl]butanoic acid]	2100 nM
O=C(CC(CCn1nnc2ccccc2c1=O)C(=O)O)c1cc2ccc(OCc3ccc(F)cc3)cc2s1 (racemic) [Example 125, (+/−)-4-{6-[(4-Fluorobenzyl)oxy]-1-benzothiophen-2-yl}-4-oxo-2-[2-(4-oxo-1,2,3-benzotriazin-3(4H)-yl)ethyl]butanoic acid]	4 nM
CCCCCCOc1ccc2cc(C(=O)CC(CCn3nnc4ccccc4c3=O)C(=O)O)oc2c1 (single isomer, unassigned; (-)) [Example 65, (−)-4-[6-(Hexyloxy)-1-benzofur-2-yl]-4-oxo-2-[2-(4-oxo-1,2,3-benzotriazin-3(4H)-yl)ethyl]butanoic acid]	340 nM
O=C(O)[C@@H]1[C@@H](Cn2nnc3ccc(C(F)(F)F)cc3c2=O)CC[C@H]1C(=O)c1cc2cc(OCCc3ccccc3)ccc2o1 (single isomer, unassigned; enantiomer 1) [Example 158, (−)-(1RS,2SR,5RS)-2-{[4-Oxo-6-(trifluoromethyl)-1,2,3-benzotriazin-3(4H)-yl]methyl}-5-{[5-(2-phenylethoxy)-1-benzofur-2-yl]carbonyl}cyclopentanecarboxylic acid (enantiomer 1)]	260 nM
O=C(CC(CCn1nnc2ccccc2c1=O)C(=O)O)c1cc2cc(OCCc3ccccc3)ccc2o1 (single isomer, unassigned; (-)) [Example 20, (−)-4-Oxo-2-[2-(4-oxo-1,2,3-benzotriazin-3(4H)-yl)ethyl]-4-[5-(2-phenylethoxy)-1-benzofur-2-yl]butanoic acid]	860 nM
